Results taken from patent US20100041089A1, “IMPROVED METHOD FOR DETECTING CHEMICAL […]” (priority 2006, published 2010).

Test system: yeast genes (expressed mRNA)
Test: DNA chip measurement of expressed mRNA of yeast genes after culture with a toxic chemical substance
Format: cell-based, Saccharomyces cerevisiae S288C
Settings: for level of expressed mRNA in the presence of chemical substance / level in the absence of chemical substance: cultured two hours with the chemical substance; for The level of expressed mRNA in the presence of chemical substance/The level of expressed mRNA in the absence of chemical substance: cultured two hours with substance
In short: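 S. cerevisiae S288C grown at 25 °C in YPD, exposed in log phase for 2 h to a toxicant at growth-inhibiting, non-lethal concentration. Cy3/Cy5-labelled cDNA from poly(A) mRNA hybridized to whole-genome chip at 65 °C >12 h. Ratio to untreated control, ≥2 significant.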

In the case of `[Cl][Hg][Cl]` [(3), HgCl2], the “The level of expressed mRNA in the presence of chemical substance/The level of expressed mRNA in the absence of chemical substance, yeast gene YBR036C” value (gene YBR036C, Metabolism protein genes, DNA chip fluorescence ratio) is reported as 1.8, the “The level of expressed mRNA in the presence of chemical substance/The level of expressed mRNA in the absence of chemical substance, yeast gene YBR298C” value (gene YBR298C, Metabolism protein genes, DNA chip fluorescence ratio) is reported as 1.6 and the “The level of expressed mRNA in the presence of chemical substance/The level of expressed mRNA in the absence of chemical substance, yeast gene YDL067C” value (gene YDL067C (mitochondria-located protein gene), yeast cultured two hours with chemical substance, DNA chip fluorescence ratio to control) is reported as 1.6. The “The level of expressed mRNA in the presence of chemical substance/The level of expressed mRNA in the absence of chemical substance, yeast gene YDL078C” value (gene YDL078C, Metabolism protein genes, DNA chip fluorescence ratio) was 1.2, the “The level of expressed mRNA in the presence of chemical substance/The level of expressed mRNA in the absence of chemical substance, yeast gene YDL215C” value (gene YDL215C, Metabolism protein genes, DNA chip fluorescence ratio) was 1.0 and the “The level of expressed mRNA in the presence of chemical substance/The level of expressed mRNA in the absence of chemical substance, yeast gene YDR079W” value (gene YDR079W (mitochondria-located protein gene), yeast cultured two hours with chemical substance, DNA chip fluorescence ratio to control) was 0.8. For the same compound, the “The level of expressed mRNA in the presence of chemical substance/The level of expressed mRNA in the absence of chemical substance, yeast gene YDR297W” value (gene YDR297W, Metabolism protein genes, DNA chip fluorescence ratio) was 0.8, the “The level of expressed mRNA in the presence of chemical substance/The level of expressed mRNA in the absence of chemical substance, yeast gene YDR387C” value (gene YDR387C, Metabolism protein genes, DNA chip fluorescence ratio) was 1.2 and the “The level of expressed mRNA in the presence of chemical substance/The level of expressed mRNA in the absence of chemical substance, yeast gene YGL035C” value (gene YGL035C, Metabolism protein genes, DNA chip fluorescence ratio) was 4.3. The “The level of expressed mRNA in the presence of chemical substance/The level of expressed mRNA in the absence of chemical substance, yeast gene YGR062C” value (gene YGR062C (mitochondria-located protein gene), yeast cultured two hours with chemical substance, DNA chip fluorescence ratio to control) was 0.7, the “The level of expressed mRNA in the presence of chemical substance/The level of expressed mRNA in the absence of chemical substance, yeast gene YGR287C” value (gene YGR287C, Metabolism protein genes, DNA chip fluorescence ratio) was 1.3 and the “The level of expressed mRNA in the presence of chemical substance/The level of expressed mRNA in the absence of chemical substance, yeast gene YJL070C” value (gene YJL070C, Metabolism protein genes, DNA chip fluorescence ratio) was 1.1. The “The level of expressed mRNA in the presence of chemical substance/The level of expressed mRNA in the absence of chemical substance, yeast gene YJL096W” value (gene YJL096W (mitochondria-located protein gene), yeast cultured two hours with chemical substance, DNA chip fluorescence ratio to control) was 0.8, the “The level of expressed mRNA in the presence of chemical substance/The level of expressed mRNA in the absence of chemical substance, yeast gene YJL180C” value (gene YJL180C (mitochondria-located protein gene), yeast cultured two hours with chemical substance, DNA chip fluorescence ratio to control) was 1.1 and the “The level of expressed mRNA in the presence of chemical substance/The level of expressed mRNA in the absence of chemical substance, yeast gene YKR009C” value (gene YKR009C, Metabolism protein genes, DNA chip fluorescence ratio) was 1.5. The “The level of expressed mRNA in the presence of chemical substance/The level of expressed mRNA in the absence of chemical substance, yeast gene YLR295C” value (gene YLR295C (mitochondria-located protein gene), yeast cultured two hours with chemical substance, DNA chip fluorescence ratio to control) was 1.1, the “The level of expressed mRNA in the presence of chemical substance/The level of expressed mRNA in the absence of chemical substance, yeast gene YLR351C” value (gene YLR351C, Metabolism protein genes, DNA chip fluorescence ratio) was 1.3 and the “The level of expressed mRNA in the presence of chemical substance/The level of expressed mRNA in the absence of chemical substance, yeast gene YLR375W” value (gene YLR375W, Metabolism protein genes, DNA chip fluorescence ratio) was 0.9. The “The level of expressed mRNA in the presence of chemical substance/The level of expressed mRNA in the absence of chemical substance, yeast gene YMR023C” value (gene YMR023C (mitochondria-located protein gene), yeast cultured two hours with chemical substance, DNA chip fluorescence ratio to control) was 0.5, the “The level of expressed mRNA in the presence of chemical substance/The level of expressed mRNA in the absence of chemical substance, yeast gene YMR267W” value (gene YMR267W (mitochondria-located protein gene), yeast cultured two hours with chemical substance, DNA chip fluorescence ratio to control) was 0.7 and the “The level of expressed mRNA in the presence of chemical substance/The level of expressed mRNA in the absence of chemical substance, yeast gene YMR267W” value (gene YMR267W, Metabolism protein genes, DNA chip fluorescence ratio) was 0.7. For the same compound, the “The level of expressed mRNA in the presence of chemical substance/The level of expressed mRNA in the absence of chemical substance, yeast gene YMR278W” value (gene YMR278W, Metabolism protein genes, DNA chip fluorescence ratio) was 1.4, the “The level of expressed mRNA in the presence of chemical substance/The level of expressed mRNA in the absence of chemical substance, yeast gene YMR293C” value (gene YMR293C, Metabolism protein genes, DNA chip fluorescence ratio) was 1.6 and the “The level of expressed mRNA in the presence of chemical substance/The level of expressed mRNA in the absence of chemical substance, yeast gene YNL073W” value (gene YNL073W (mitochondria-located protein gene), yeast cultured two hours with chemical substance, DNA chip fluorescence ratio to control) was 0.9. The “The level of expressed mRNA in the presence of chemical substance/The level of expressed mRNA in the absence of chemical substance, yeast gene YNR072W” value (gene YNR072W, Metabolism protein genes, DNA chip fluorescence ratio) was 0.5, the “The level of expressed mRNA in the presence of chemical substance/The level of expressed mRNA in the absence of chemical substance, yeast gene YOL096C” value (gene YOL096C, Metabolism protein genes, DNA chip fluorescence ratio) was 1.2 and the “The level of expressed mRNA in the presence of chemical substance/The level of expressed mRNA in the absence of chemical substance, yeast gene YOR180C” value (gene YOR180C, Metabolism protein genes, DNA chip fluorescence ratio) was 1.0. The “The level of expressed mRNA in the presence of chemical substance/The level of expressed mRNA in the absence of chemical substance, yeast gene YOR316C” value (gene YOR316C (mitochondria-located protein gene), yeast cultured two hours with chemical substance, DNA chip fluorescence ratio to control) was 1.5, the “The level of expressed mRNA in the presence of chemical substance/The level of expressed mRNA in the absence of chemical substance, yeast gene YOR363C” value (gene YOR363C, Metabolism protein genes, DNA chip fluorescence ratio) was 0.9 and the “The level of expressed mRNA in the presence of chemical substance/The level of expressed mRNA in the absence of chemical substance, yeast gene YPL040C” value (gene YPL040C (mitochondria-located protein gene), yeast cultured two hours with chemical substance, DNA chip fluorescence ratio to control) was 0.8. For the same compound, the “The level of expressed mRNA in the presence of chemical substance/The level of expressed mRNA in the absence of chemical substance, yeast gene YPL134C” value (gene YPL134C (mitochondria-located protein gene), yeast cultured two hours with chemical substance, DNA chip fluorescence ratio to control) was 1.6, the “The level of expressed mRNA in the presence of chemical substance/The level of expressed mRNA in the absence of chemical substance, yeast gene YPR184W” value (gene YPR184W, Metabolism protein genes, DNA chip fluorescence ratio) was 5.7 and the “level of expressed mRNA in the presence of chemical substance / level in the absence of chemical substance” value (yeast gene YAL018C) was 1.1. For the same compound, the “The level of expressed mRNA in the presence of chemical substance/The level of expressed mRNA in the absence of chemical substance” value (yeast gene YAL053W) was 1.3, the “level of expressed mRNA in the presence of chemical substance / level in the absence of chemical substance” value (yeast gene YAR047C) was 1.5 and the “level of expressed mRNA in the presence of chemical substance / level in the absence of chemical substance” value (yeast gene YAR064W) was 0.9. For the same compound, the “level of expressed mRNA in the presence of chemical substance / level in the absence of chemical substance” value (yeast gene YBL044W) was 2.1, the “The level of expressed mRNA in the presence of chemical substance/The level of expressed mRNA in the absence of chemical substance” value (yeast gene YBL048W) was 2.3 and the “The level of expressed mRNA in the presence of chemical substance/The level of expressed mRNA in the absence of chemical substance” value (yeast gene YBL107C) was 0.4. The “level of expressed mRNA in the presence of chemical substance / level in the absence of chemical substance” value (yeast gene YBR012C) was 1.3, the “level of expressed mRNA in the presence of chemical substance / level in the absence of chemical substance” value (yeast gene YBR066C) was 1.6 and the “level of expressed mRNA in the presence of chemical substance / level in the absence of chemical substance” value (yeast gene YBR124W) was 1.5. The “level of expressed mRNA in the presence of chemical substance / level in the absence of chemical substance” value (yeast gene YBR162C) was 3.1, the “level of expressed mRNA in the presence of chemical substance / level in the absence of chemical substance” value (yeast gene YBR287W) was 3.1 and the “level of expressed mRNA in the presence of chemical substance / level in the absence of chemical substance” value (yeast gene YCL042W) was 7.2. The “level of expressed mRNA in the presence of chemical substance / level in the absence of chemical substance” value (yeast gene YCL056C) was 0.7, the “level of expressed mRNA in the presence of chemical substance / level in the absence of chemical substance” value (yeast gene YCR007C) was 0.9 and the “level of expressed mRNA in the presence of chemical substance / level in the absence of chemical substance” value (yeast gene YDL046W) was 5.1. The “The level of expressed mRNA in the presence of chemical substance/The level of expressed mRNA in the absence of chemical substance” value (yeast gene YDL072C) was 3.5, the “The level of expressed mRNA in the presence of chemical substance/The level of expressed mRNA in the absence of chemical substance” value (yeast gene YDL204W) was 4.8 and the “The level of expressed mRNA in the presence of chemical substance/The level of expressed mRNA in the absence of chemical substance” value (yeast gene YDL222C) was 1.5. For the same compound, the “level of expressed mRNA in the presence of chemical substance / level in the absence of chemical substance” value (yeast gene YDR090C) was 0.8.
